Laboratory results taken from patent publication US20230263792A1, “USE OF 2,3,5-SUBSTITUTED THIOPHENE COMPOUND FOR PREVENTING, ALLEVIATION, OR TREATING MASTOCYTOSIS” (PHAROS IBIO CO., LTD, priority 2020, published 2023).

Key:
[1] = system: inflammatory response caused by mastocytosis (HMC-1.2 mouse model); assay: Spleen/body weight ratio in mastocytosis mouse model (inflammatory response); type: in vivo, NOD SCID female mice
Protocol: (§1) As mice, 6-8-week-old NOD SCID female mice (18 to 22 g) (GemPharmatech Co., Ltd.) were prepared. Mice were acclimatized for 7 days before use in the experiment, and mice with abnormal health were excluded from the experiment. Mice were bred in a cage (300×180×150 mm) at a 22±3° C. and a relative humidity of 40% to 70% with a 12-hr light/12-hr dark cycle. Mice were allowed access to sterilized dry granular food (Beijing Keaoxieli Feed Co., Ltd., Beijing, China) and water ad libitum for the entire experimental period except for the period specified in the protocol.
50 ml of HMC-1.2 cells suspension-cultured in a 75T flask were placed in a conical tube and centrifuged at 1,200 rpm for 2 minutes, centrifuged with DPBS (Dulbecco's Phosphate-Buffered Saline, Welgene) at 1,200 rpm for 2 minutes, washed, and then suspended in RPMI1640 (Welgene) without antibiotics and fetal bovine serum (FBS). Then, the cells were stained with trypan blue, counted with a hemocytometer, and then HMC-1.2 cells (1×10^6) in a mixture of 0.1 ml L-15 and Matrigel (BD, cat. No. 356234) (1:1) were subcutaneously injected into the right flanks of mice anesthetized by intraperitoneal administration of Avertin (250 mg/kg), thus inducing tumors.
Thereafter, when the average tumor volume reached 150 to 200 mm^3, 4 mice were assigned to each group so that the average tumor volume at each group and treatment time was the same between the groups. Then, each of imatinib at a dose of 90 mg/kg, sunitinib at doses of 20 and 40 mg/kg, and PHI-101 at doses of 7, 20, 40 and 80 mg/kg was administered orally to the mice once daily for 3 weeks. For oral administration, each compound was dissolved in 5% 1-methyl-2-pyrrolidone and then completely mixed in 15% Kolliphor, 30% PEG E400 HS15 and 50% 0.05M citric acid.
Specifically, 3 weeks after administering each drug to the mastocytosis mouse model of Example 3-1, the mice were sacrificed, the body weight and spleen weight were measured using a digital scale, and then the spleen/body weight ratio was calculated.

[2] = system: c-kit phosphorylation and downstream signaling (p-STAT3, p-ERK1/2) in the c-kit D816V mutant Ba/F3 cell line; assay: Western blot of c-kit phosphorylation and downstream signaling in c-kit D816V Ba/F3; type: cell-based; conditions: 0.1, 1 and 10 μM, 2 hours, FIG. 2
Protocol: The inhibitory activities of control compounds and PHI-101 against c-kit phosphorylation and downstream signaling (p-STAT3, p-ERK1/2) in the c-kit D816V mutant Ba/F3 cell line were measured, and as the control compounds, sunitinib and dasatinib were used.
Specifically, the c-kit D816V mutant Ba/F3 cell line was dispensed at a concentration of 1×10^6 cells/ml, treated with each of the control compounds and PHI-101 at concentrations of 0.1, 1 and 10 μM, and then cultured for 2 hours. Next, lysates of the cells were obtained using lysis buffer (50 mM Tris-HCl pH 7.5, 1% NP40, 1 mM EDTA, 150 mM NaCl, 5 mM, Na3VO4 and 2.5 mM NaF, and a protease inhibitor cocktail). Equal amounts of the cell lysates were electrophoresed using 8% SDS-PAGE gel at 100 V for 1 hour and 30 minutes, and the separated protein was electrically transferred to nitrocellulose membranes. The membranes were blocked with 5% skim milk at room temperature for 30 minutes, and allowed to react with primary antibodies (diluted 1:5,000), including p-c-kit tyrosine 719 (Y719), p-STAT3 tyrosine 705 (Y705) and p-ERK1/2 threonine 202/tyrosine 204 (T202/Y204) at 4° C. for 16 to 20 hours. […] Next, the membranes were washed three times with TBST for 5 minutes each time and treated with a chemiluminescent substrate reagent, and the expression level of the protein was measured by detecting luminescence with an X-ray film in the dark.

[3] = system: HMC-1.2 cells subcutaneous tumor; assay: Tumor growth inhibition in mastocytosis mouse model with HMC-1.2 cell line; type: in vivo, NOD SCID female mice
Protocol: as §1
50 ml of HMC-1.2 cells suspension-cultured in a 75T flask were placed in a conical tube and centrifuged at 1,200 rpm for 2 minutes, centrifuged with DPBS (Dulbecco's Phosphate-Buffered Saline, Welgene) at 1,200 rpm for 2 minutes, washed, and then suspended in RPMI1640 (Welgene) without antibiotics and fetal bovine serum (FBS).
Thereafter, when the average tumor volume reached 150 to 200 mm^3, 4 mice were assigned to each group so that the average tumor volume at each group and treatment time was the same between the groups.
In addition, the width and length of the tumor were measured using a caliper at 3-day intervals, and the tumor volume was calculated using the following equation.
(V: tumor volume, W: tumor width, and L: tumor length)
In addition, the mice were sacrificed 3 weeks after the start of oral administration of each drug and the tumor weight was measured using a digital scale. For each data, one-way ANOVA was used to test the significance of each group.

HMC-1.2 cell line = assay: Annexin V-PI FACS apoptosis analysis, HMC-1.2; type: cell-based; conditions: HMC-1.2, 0.1 and 1 μM, FIG. 7
Protocol: Specifically, the c-kit D816V mutant Ba/F3 cell line was adjusted to a concentration of 1×10^6 cells/ml and treated with each of PHI-101 at concentrations of 0.1, 1 and 10 μM and the control compound sunitinib at concentrations of 1 and 10 μM for 24 hours. Thereafter, the medium was removed and the cells were washed once with 1 ml PBS. The PBS was removed by centrifugation at 1,000 rpm for 5 minutes. The cells were dissolved in 100 μl of PBS containing Ca^2+ and Mg^2+ and allowed to react with 5 μl of Annexin V for 20 minutes. After completion of the reaction, 400 μl of PBS containing Ca^2+ and Mg^2+ was added, and 5 μl of propidium iodide (PI) was added, and then the degree of apoptotic cell death was analyzed by FACS (fluorescence activated cell sorter) assay using a flow cytometer (FACS-C6, BD).
Specifically, the apoptotic effect of PHI-101 against the HMC-1.2 cell line was analyzed in the same manner as in Example 1-3, except that the HMC-1.2 cell line was treated with each of the control compounds at a concentration of 1 μM and PHI-101 at concentrations of 0.1 and 1 μM.

[4] = 7 mg/kg oral once daily for 3 weeks
[5] = 20 mg/kg oral once daily for 3 weeks
[6] = 40 mg/kg oral once daily for 3 weeks
[7] = 80 mg/kg oral once daily for 3 weeks

SMILES: NC(=O)Nc1cc(C#Cc2cccc(F)c2)sc1C(=O)N[C@H]1CCCNC1 [PHI-101]
- Spleen/body weight ratio % of control [1, 4]: 105.0%
- Spleen/body weight ratio Inhibition (%) [1, 4]: −5%
- Spleen/body weight ratio % of control [1, 5]: 95.0%
- Spleen/body weight ratio Inhibition (%) [1, 5]: 5%
- Spleen/body weight ratio % of control [1, 6]: 55.7%
- Spleen/body weight ratio Inhibition (%) [1, 6]: 44.3%
- Spleen/body weight ratio % of control [1, 7]: 46.3%
- Spleen/body weight ratio Inhibition (%) [1, 7]: 53.7%
- spleen/body weight ratio compared to control group ([1]; 7, 20, 40 and 80 mg/kg, FIGS. 13 and 14): decreased the spleen/body weight ratio in a concentration-dependent manner
- inhibitory activity against p-c-kit (Y719) phosphorylation [2]: higher inhibitory activity against p-c-kit (Y719) phosphorylation than the control compounds
- Tumor growth inhibition (TGI) (%) Timor volume [3, 4]: 30.2%
- Tumor growth inhibition (TGI) (%) Tumor weight [3, 4]: 32.7%
- Tumor growth inhibition (TGI) (%) Timor volume [3, 5]: 43.6%
- Tumor growth inhibition (TGI) (%) Tumor weight [3, 5]: 51.6%
- growth of mastocytosis cells in mouse model ([3]; 40 mg/kg or more, versus control compounds, FIGS. 9 to 12): significantly inhibited compared to that in the group treated with each control compound
- Tumor growth inhibition (TGI) (%) Timor volume [3, 6]: 68.4%
- Tumor growth inhibition (TGI) (%) Tumor weight [3, 6]: 68.3%
- Tumor growth inhibition (TGI) (%) Timor volume [3, 7]: 78.5%
- Tumor growth inhibition (TGI) (%) Tumor weight [3, 7]: 82.7%
- apoptosis induction (Annexin V-PI FACS) (HMC-1.2 cell line): strongly induced apoptosis even at a concentration of 1 μM
